Data reported in the supplement of paper PMC11208160.

Assay: recombinant barcode read abundance after kanamycin selection (control-corrected) (log10(CPM+1)); higher = more efficient recombination; sequences stand for … in AGTGCAGAGAAAATCGGCCAGTTTTCTCTGCCTGCAGTCCGCATGCCGT…AGATTTATGCAGCGGACTGCCTTTCTCCCAAAGTGATAAACCGGACAGTATCATGGACCGGTTTTCCCGGTAATCCGTATTTGCAAGGTTGGTTTCACT; site = the 11-nt target
How it was run: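 Targets and IS621 bridge RNA target-binding loops were paired in oligos, each with a promoter, a barcode and the J23119-driven first 104 bridge RNA bases. A vector carrying the remaining 73 bp and a T7-inducible recombinase received these by Gibson cloning, and the pool was co-electroporated into E. coli with a donor plasmid. Duplicate plates contained chloramphenicol/ampicillin LB agar (control) or chloramphenicol/ampicillin/kanamycin with 0.1 mM IPTG. Recombination efficiency comes from averaged, control-corrected counts per million of recombinant-junction barcodes, reported as log10(CPM+1).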
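Further: IS621 recombinase and bridge RNA in Escherichia coli cells.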

Sequence	recombinant barcode read abundance (log10)
TGCATAGCTTGGGTTCTAACCTGTTGCAG (site CTGCAGTCTTG)	0.00928
TGCATAGCTTGGGTTCTAACCTGTTGCAG (site TGCATAGCTCT)	1.49
TGCCAGACTTGGGTTCTAACCTGTTGCGT (site AGCCACACTAC)	0.0104
TGCCAGACTTGGGTTCTAACCTGTTGCGT (site TGCCAGACTAC)	1.74
TGCCCCTCTTGGGTTCTAACCTGTTGCCG (site ACAAGGCCTAT)	0.0768
TGCCCCTCTTGGGTTCTAACCTGTTGCCG (site TGCCCCTCTCG)	1.46
TGCCCTCCTTGGGTTCTAACCTGTTGCTT (site TCCTCTCCTAA)	0.0862
TGCCCTCCTTGGGTTCTAACCTGTTGCTT (site TGCCCTCCTAA)	0.0976
TGCCTCTCTTGGGTTCTAACCTGTTGCTA (site GTTAGACCTAG)	0.0422
TGCCTCTCTTGGGTTCTAACCTGTTGCTA (site TGCCTCTCTTA)	0.279
TGCGATACTTGGGTTCTAACCTGTTGCTT (site ACACGAGCTCT)	0.0799
TGCGATACTTGGGTTCTAACCTGTTGCTT (site TGCGATACTAA)	0.223
TGCGGGTCTTGGGTTCTAACCTGTTGCCT (site GAGCTTGCTTC)	0.273
TGCGGGTCTTGGGTTCTAACCTGTTGCCT (site TGCGGGTCTAG)	0.702
TGCGTTCCTTGGGTTCTAACCTGTTGCGT (site TGCGTCACTAC)	0.0759
TGCGTTCCTTGGGTTCTAACCTGTTGCGT (site TGCGTTCCTAC)	0.88
TGCTAGGCTTGGGTTCTAACCTGTTGCCT (site TGCTAGGCTAG)	0.0609
TGCTAGGCTTGGGTTCTAACCTGTTGCCT (site TGTCAGGCTAG)	0.0576
TGCTCGGCTTGGGTTCTAACCTGTTGCCT (site AGCTCCGCTAG)	0
TGCTCGGCTTGGGTTCTAACCTGTTGCCT (site TGCTCGGCTAG)	0.0603
TGCTCTACTTGGGTTCTAACCTGTTGCTT (site TGATCTACTAA)	0.122
TGCTCTACTTGGGTTCTAACCTGTTGCTT (site TGCTCTACTAA)	0.0286

Sequence	recombinant barcode read abundance (log10)
TGCTCTACTTGGGTTCTAACCTGTTGCTT (site TGGTCTACTAA)	0.0891
TGCTCTACTTGGGTTCTAACCTGTTGCTT (site TGTTCTACTAA)	0.00634
TGCTGTGCTTGGGTTCTAACCTGTTGCCT (site TGCTGTACTAG)	0.0329
TGCTGTGCTTGGGTTCTAACCTGTTGCCT (site TGCTGTCCTAG)	0.179
TGCTGTGCTTGGGTTCTAACCTGTTGCCT (site TGCTGTGCTAG)	0.29
TGCTGTGCTTGGGTTCTAACCTGTTGCCT (site TGCTGTTCTAG)	0.279
TGGAACACTTGGGTTCTAACCTGTTGCCT (site TGGAACACTAG)	0.98
TGGAACACTTGGGTTCTAACCTGTTGCCT (site TGGACCACTAG)	0.0483
TGGAACACTTGGGTTCTAACCTGTTGCCT (site TGGAGCACTAG)	0.0596
TGGAACACTTGGGTTCTAACCTGTTGCCT (site TGGATCACTAG)	0.119
TGGACCTCTTGGGTTCTAACCTGTTGCCA (site CTACGAACTCC)	0.626
TGGACCTCTTGGGTTCTAACCTGTTGCCA (site TGGACCTCTTG)	0.222
TGGACGTCTTGGGTTCTAACCTGTTGCCT (site TGGACGCCTAG)	0.125
TGGACGTCTTGGGTTCTAACCTGTTGCCT (site TGGACGTCTAG)	0.865
TGGACTTCTTGGGTTCTAACCTGTTGCTC (site TGGACTTCTCA)	0.24
TGGACTTCTTGGGTTCTAACCTGTTGCTC (site TGGACTTCTGA)	0.141
TGGCAGACTTGGGTTCTAACCTGTTGCCT (site TGGCAGACTAG)	0.215
TGGCAGACTTGGGTTCTAACCTGTTGCCT (site TGGCAGCCTAG)	0.263
TGGCAGACTTGGGTTCTAACCTGTTGCCT (site TGGCAGGCTAG)	0.0442
TGGCAGACTTGGGTTCTAACCTGTTGCCT (site TGGCAGTCTAG)	0.232
TGGCAGCCTTGGGTTCTAACCTGTTGCCT (site TGGCAGACTAG)	0.0766
TGGCAGCCTTGGGTTCTAACCTGTTGCCT (site TGGCAGCCTAG)	0.216

Sequence	recombinant barcode read abundance (log10)
TGGCAGCCTTGGGTTCTAACCTGTTGCCT (site TGGCAGGCTAG)	0.231
TGGCAGCCTTGGGTTCTAACCTGTTGCCT (site TGGCAGTCTAG)	0.0934
TGGCGTGCTTGGGTTCTAACCTGTTGCCT (site TGGCGTGCTAG)	0.382
TGGCGTGCTTGGGTTCTAACCTGTTGCCT (site TGTTGTGCTAG)	0.118
TGGCTGTCTTGGGTTCTAACCTGTTGCCT (site TGGCTGTCTAG)	1.2
TGGCTGTCTTGGGTTCTAACCTGTTGCCT (site TGGTTGTCTAG)	0.0561
TGGTACCCTTGGGTTCTAACCTGTTGCTA (site GTTACTACTCG)	0.0129
TGGTACCCTTGGGTTCTAACCTGTTGCTA (site TGGTACCCTTA)	1.36
TGGTAGTCTTGGGTTCTAACCTGTTGCGT (site AAAGCTACTTA)	0.0198
TGGTAGTCTTGGGTTCTAACCTGTTGCGT (site TGGTAGTCTAC)	2.57
TGGTATACTTGGGTTCTAACCTGTTGCCT (site TGGTATACTAG)	0.241
TGGTATACTTGGGTTCTAACCTGTTGCCT (site TGGTATCCTAG)	0.0279
TGGTATACTTGGGTTCTAACCTGTTGCCT (site TGGTATGCTAG)	0.183
TGGTATACTTGGGTTCTAACCTGTTGCCT (site TGGTATTCTAG)	0.122
TGGTGTGCTTGGGTTCTAACCTGTTGCCA (site TAGTGTCCTTG)	0.0537
TGGTGTGCTTGGGTTCTAACCTGTTGCCA (site TGGTGTGCTTG)	0.267
TGTAAGGCTTGGGTTCTAACCTGTTGCTT (site TGTAAGACTCA)	0.142
TGTAAGGCTTGGGTTCTAACCTGTTGCTT (site TGTAAGGCTAA)	0.27
TGTAATCCTTGGGTTCTAACCTGTTGCCT (site TGTAATACTAG)	0.327
TGTAATCCTTGGGTTCTAACCTGTTGCCT (site TGTAATCCTAG)	0.025
TGTAATCCTTGGGTTCTAACCTGTTGCCT (site TGTAATGCTAG)	0.032
TGTAATCCTTGGGTTCTAACCTGTTGCCT (site TGTAATTCTAG)	0.0105
